Test results taken from patent US6794376B2, “Methods and compositions for enhancing diffusion of therapeutic agents through tissue” (William Beaumont Hospital, priority 2000, dated 2004).

Key:
[1] = test system: Spheroids made from MCF-7 human breast carcinoma cells; assay: Doxorubicin penetration and morphology in MCF-7 spheroids treated with permeabilizer, with or without hyperthermia; format: cell-based
Procedure: Spheroids made from MCF-7 human breast carcinoma cells were treated with 3.0 micrograms per milliliter doxorubicin for six hours at various temperatures and under various permeabilizer conditions. Doxorubicin is an anti-neoplastic drug frequently used in chemotherapy procedures. When the spheroids were treated for six hours at 37.0° C. in the absence of permeabilizer, the drug penetrated only six cell layers into the spheroids. […] The spheroids in this experiment also underwent a characteristic change in morphology. […] These changes in spheroid morphology and drug penetration were never observed in control spheroids that received no permeabilizer treatment. Furthermore, these changes were never observed in spheroids that received sham treatment, which included exposure to all components used in the permeabilizer emulsion except the permeabilizer.
In this example, spheroids were treated as in example 1 with the addition of hyperthermia as an additional variable in the experiment. Hyperthermia in this example involved raising the temperature of the spheroids to approximately 40° C. […] Hyperthermia treatment alone had no effect on penetration of doxorubicin or upon the intercellular space.

[2] = Highest permeabilizer concentration that gives a stable emulsion; format: physicochemical
Procedure: As indicated above, prior to delivery to the tissue of interest, a working emulsion of the permeabilizer is prepared, preferably from one of the stocks. The working emulsion preferably comprises one or more permeabilizers in a buffer. The concentration of the permeabilizer will depend on the permeabilizer used in the procedure being conducted. Because ethylene brassylate and civetone are liquids, they can be administered to a tissue at concentrations up to 100%. Preferably, the working emulsion contains ethylene brassylate, civetone, or a combination of both at a concentration of between approximately 0.1 and 20% (volume/volume). As indicated above, Cyclopentadecanone and cyclopentadecanolide, however, are solids. The highest concentration of cyclopentadecanone or cyclopentadecanolide that can be made into a stable emulsion is approximately 25% (weight/volume). As a result, the working emulsion preferably contains cyclopentadecanone or cyclopentadecanolide at a concentration of between approximately 0.1 and 25%. Particularly preferred is a working solution that contains cyclopentadecanone, cyclopentadecanolide, or a combination of both, at a concentration of between approximately 0.1 and 7%.

[3] = test system: Du-145 tumors grafted onto mice; assay: Adenovirus vector diffusion (X-gal staining) in Du-145 xenograft tumors injected with permeabilizer, with or without hyperthermia; format: in vivo; conditions: single injection of 30 microliters, tumor retrieved at 72 hours
Procedure: Du-145 tumors grafted onto mice were injected with cyclopentadecanolide and adenovirus vector that contained the beta-galactosidase transgene, all in PBS. The tumor was retrieved 72 hours after treatment, cryosectioned, and stained with X-gal to visualize beta-galactosidase expression.
In this example, tumors were heated to 41.0° C. using an unfocused ultrasonic transducer prior to treatment with permeabilizer and virus vector. When hyperthermia was established, the tumor was given a single injection of 30 microliters containing 6% cyclopertadecanolide and 2×10^10 adenovirus vectors that contained the beta-galactosidase transgene, all in PBS. Following the injection, the hyperthermia was continued for an additional 45 minutes. That is, the elevated temperature was maintained for 45 minutes after injection. The tumor was retrieved 72 hours following the injection, cryosectioned, and stained with X-gal to visualize beta-galactosidase expression.
The voids were filled with light amber colored, gelatinous material, indicating break-down of the tissue cell membranes.

[4] = test system: spheroids made from DU-145 human prostate carcinoma cells; assay: Adenovirus vector (beta-galactosidase reporter) penetration into DU-145 spheroids treated with permeabilizer, with or without hyperthermia; format: cell-based
Procedure: The spheroids made from DU-145 human prostate carcinoma cells were grown to an average diameter of 500 micrometers and then suspended in culture medium containing 0.1% to 3% cyclopentadecanolide plus adenovirus vectors that had beta-galactosidase as a reporter transgene. Once a viral vector entered a cell, beta-galactosidase was expressed constitutively under control of the human CMV promoter. The experimental protocol called for the spheroids to be incubated for 48 to 72 hours following treatment to permit transgene expression. It should be noted that a reporter gene was utilized in this Example, as well as in Examples 4 and 5, only to facilitate determination of the extent of vector diffusion. Any other polynucleotide could be used in this system, including suicide genes and genes encoding therapeutic proteins.
Within 6 to 24 hours following permeabilizer treatment, depending upon the permeabilizer concentration used, the cells within the spheroid regions where the intercellular space was increased became detached from the spheroid.

[5] = 6% permeabilizer and 2×10^10 adenovirus vectors, hyperthermia 41.0° C. kept for 45 minutes after injection

SMILES	spheroid morphology / intercellular space ([1]; 0.6% cyclopentadecanone, 37.0° C., six hours)	degree to which doxorubicin penetrated the spheroids ([1]; 3.0 micrograms per milliliter doxorubicin, six hours, culture medium containing 0.6% cyclopentadecanone, 37.0° C.)	permeabilizer activity with concurrent hyperthermia ([1]; as example 1 plus hyperthermia, approximately 40° C.)	doxorubicin penetration with permeabilizer and hyperthermia ([1]; as example 1 plus hyperthermia, approximately 40° C., doxorubicin fluorescence)	intercellular space with concurrent hyperthermia ([1]; as example 1 plus hyperthermia, approximately 40° C., intact and sectioned spheroids)	highest concentration that can be made into a stable emulsion [2]	depth of doxorubicin penetration into the spheroids ([1]; 3.0 micrograms per milliliter doxorubicin, six hours, 37.0° C., absence of permeabilizer)	effect of hyperthermia treatment alone on penetration of doxorubicin ([1]; hyperthermia approximately 40° C., no permeabilizer)	X-gal staining from beta-galactosidase expression in tumor sections [3, 5]	tumor section morphology (tissue destruction) [3, 5]	X-gal staining from beta-galactosidase expression in tumor sections ([3]; 12% cyclopentadecanolide and 2×10^10 adenovirus vectors, no hyperthermia)	transgene expression in cells that detached from the spheroids ([4]; 0.1% to 3% cyclopentadecanolide plus adenovirus vectors with beta-galactosidase reporter transgene)	cell detachment from the spheroid when hyperthermia was included ([4]; 0.1% to 3% cyclopentadecanolide plus hyperthermia)
O=C1CCCCCCCCCCCCCC1 [cyclopentadecanone]	increase in intercellular space	essentially tripled	marked potentiation of permeabilizer activity	penetrated all recesses of the spheroids	greater increase in intercellular space	approximately 25 % (weight/volume)							
COc1cccc2c1C(=O)c1c(O)c3c(c(O)c1C2=O)C[C@@](O)(C(=O)CO)C[C@@H]3O[C@H]1C[C@H](N)[C@H](O)[C@H](C)O1 [doxorubicin, reference compound]							six	no effect					
O=C1CCCCCCCCCCCCCCO1 [cyclopentadecanolide]						approximately 25 % (weight/volume)			pervaded the remainder of the sections	large voids in the center of the sections	pervasive throughout the section	exhibit beta-galactosidase activity	grossly exacerbated
